Measurements published in patent US12097190B2, “Therapeutic use of levorotatory β-lactams in hematopoiesis, immuno-oncology therapy, and regulation of lipoprotein and apolipoprotein levels” (Alpha-1 Biologics, LLC, priority 2017, dated 2024).

What was measured:
[1] = biological target: T1, cell surface human leukocyte elastase (HLE-CS) (Homo sapiens, UniProt P08246); assay: Adherence of U937 cells to compound-coated glass (binding to HLE-CS); format: cell-based; conditions: 2,000 U937 cells added per compound-treated well; for Adherent Cells: at optimal adherence concentration
T1 construct: endogenous in cells
T1 sequence (P08246 30-267): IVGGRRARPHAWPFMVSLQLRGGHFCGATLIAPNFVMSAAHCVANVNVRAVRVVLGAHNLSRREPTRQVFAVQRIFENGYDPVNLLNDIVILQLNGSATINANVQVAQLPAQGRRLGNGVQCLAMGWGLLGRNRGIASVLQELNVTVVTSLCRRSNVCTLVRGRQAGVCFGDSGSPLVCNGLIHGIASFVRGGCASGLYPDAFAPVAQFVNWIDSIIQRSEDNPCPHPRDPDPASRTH
From the text: Adherence is the first step in cell migration and requires […] calcium, magnesium, signaling, or energy. […] […] After washing and fixing the cells, the number of adherent cells were counted microscopically.

[2] = biological target: T2, soluble, granule-associated human leukocyte elastase (HLE-G) (Homo sapiens, UniProt P08246); assay: Inhibition of soluble human leukocyte elastase (HLE-G), SA3NA substrate, 405 nm; format: biochemical; conditions: for IC50: IC50 of compound versus HLE-G (75 μM); for Molar Excess**: Molar excess of compound to HLE-G at IC50
T2 sequence (P08246 30-267): T1 sequence (P08246 30-267)
Protocol: The procedures for measuring the capacity of substances to inhibit soluble forms of elastase or HLE-G are well known to those of ordinary skill in the art (U.S. Pat. No. 6,887,678; Bristow et al., 1998). Briefly, soluble human leukocyte elastase (HLE-G) is incubated for 2 minutes with a test substance, and to this mixture is added the elastase substrate succinic-L-Ala-L-Ala-L-Ala-p-nitroanilide (SA3NA, Sigma-Aldrich). Results are detected by measuring the color change at 405 nm.
Assay 1: Inhibition of HLE (microplate assay, 10 tests per plate) as described in Example 2 above and previously published (Bristow et al., 1998).

E. coli DH5-Alpha = assay: Kirby-Bauer Disk Test, zones of inhibition; format: cell-based; conditions: for zone of inhibition at 5000 µM: 5 mM
Protocol: […] At this concentration of cells, bacteria were spread on Mueller-Hinton agar plates. […] After incubation for 16 hours at 37° C., plates were examined for zones of inhibition.

LDL = assay: Diet-induced obesity (DIO) mouse model, serum LDL levels; format: in vivo; conditions: week 6, normalized to vehicle
Protocol: The well-known Jackson Laboratory (Bar Harbor, Me.) C57BL/6 Diet-Induced Obesity (DIO) mouse model represents human metabolic syndrome and elevated LDL levels. Mice are fed a high fat diet (60% fat) or normal diet (10% fat) for various periods of time and lipoprotein levels were measured. […] In accordance with a protocol used in a recently conducted human clinical trial (NCT01731691), mouse peripheral blood was collected into blood collection tubes, and serum was analyzed for lipoprotein levels using Beckman Coulter AU680 Chemistry System. In addition, cells were analyzed by flow cytometry to quantitate lymphocyte subsets including CD3, CD4, and CD8. As compared to baseline levels (before treatment), lipoprotein levels (including, but not limited to total cholesterol, HDL, LDL, apoA, apoB, apoC, apoE) and blood cells expressing the above mentioned cellular markers were quantitated to determine changes due to treatment. Diet-induced obesity mice (DIO, Jackson Laboratory) were fed a 60% fat diet for 17 weeks. […] Because mice were maintained on the DIO diet throughout the study, body weight and LDL levels increased in the vehicle control (Group 1). To compare the effectiveness of compounds, mean values within each treatment group were normalized by forming a ratio to mean values of vehicle, and the ratio was expressed as normalized % change using to the formula: 100−(Treatment mean/Vehicle mean*100).

U937 Clone 10 cells = assay: Receptor polarization, cell migration and SHIV endocytosis in preconditioned cells; format: cell-based, human
Protocol: The procedures for inducing receptor polarization have been described (Bristow et al., 2003).
To examine receptor polarization, microscope slides are prepared by adding serial dilutions of a β-lactams. Cells are added to the microscope slides and incubated for 30 minutes in humidified 5% CO2 at 37° C. Unattached cells are removed by washing, and attached cells are fixed by application of 4% paraformaldehyde after which attached cells are counted by light microscopy and photographed using confocal microscopy
Receptor Polarization: U937 Clone 10 cells were cultured overnight in AIM-V serum-free medium. Cells were pelleted, re-suspended in AIM-V at 2×10^6/ml, and 250 μl (5×10^5 cells) was added to Eppendorf tubes pre-coated to prevent attachment.
Binding and Endocytosis: AT 2 chemically inactivated SHIV preparations, consisting of non-infectious virus with conformationally and functionally intact envelope glycoproteins, were provided by the AIDS Vaccine Program (SAIC Frederick, Frederick, Md.). Cells were pulsed with virus (30 ng p27 or p24 per 10^6 cells) for 2 hr. at 2° C. which allows binding, but prevents endocytosis. Alternatively, cells were pulsed with virus for 2 hr. at 37° C. which allows binding and endocytosis. Following pulsing for 2 hr., cells were mounted on Alcian blue slides for microscopy. The presence of inactivated virus in test cells was detected using dodecameric human CD4+-IgG1 provided by the Laboratory of Immunoregulation, NIAID, NIH. This reagent specifically recognizes conformationally intact HIV 1/SIV envelope gp120. CD4-IgG1 was detected using HRP-conjugated Rb anti-human IgG (Sigma). CD4+ IgG-labeled cells were coupled to Oregon 488 fluorochrome using the tyramide signal amplification system (Life Science Products, Boston, Mass., USA). […] Cells were analyzed using 2 μm scanning from 3B.

T lymphocytes = assay: Effect on T cell numbers in C57BL6 mice, flow cytometry; format: in vivo, mouse; conditions: 5 mg/kg oral gavage, 2 weeks of treatment, change from baseline
Protocol: Compounds were delivered by oral gavage 5 days per week. Blood was collected weekly for detection of CD3e, CD4, and CD8a T cells by flow cytometry using the mouse T lymphocyte subset antibody cocktail with isotype control (BD Biosciences). The study was performed at the Division of Laboratory Animal Research, Stony Brook University, Stony Brook, N.Y. Staining and statistical analysis was performed by Alpha-1 Biologics, and the samples were acquired by the Flow Cytometry Laboratory, Stony Brook Hospital, using a BD LSRFortessa instrument. […] Data were normally distributed and compared using Student's T-test. Mean % Change in CD3+ T cells for vehicle was −11% and for CD4+CD8+ progenitors was −13%. […] Average percent change from baseline is represented in FIGS. 6A and 6B where % change=100×[(Treatment Mean-Baseline)/Baseline].

[3] = tested on: HIV permissive (plus) clone 10; assay: Adherence assay on coverslips, U937 plus clone 10; format: cell-based, human
Protocol: To coverslips prepared with chemoattractants as described above, 10^6 cells in 90 μl HBSS were mixed to uniformity, and incubated for 30 min in humidified 5% CO2 at 37° C. without dehydration. To detect interacting effects of stimulants, cells were delivered in an 80 μl volume to coverslips previously prepared with 10 μl of one stimulant, mixed to uniformity, and incubated for 15 min at 37° C. Subsequently, an additional stimulant was delivered in a 10 μl volume to each coverslip, mixed with pre-incubated cells to uniformity, and incubated for 30-60 min at 37° C. […] Slides were examined by epi-illumination UV microscopy on a Zeiss Axioskop Means and standard deviations were determined by counting adherent cells in at least three fields/coverslip.
Means and standard deviations represent the difference between stimulated and unstimulated adherence. […] Adherence was optimized for each chemoattractant and adherence induced by each chemoattractant was enumerated in more than three separate experiments.

elastase = conditions: inhibition of elastase activity as described in the package insert; cited from earlier work
[4] = tested on: Human acute myeloid leukemia cells (AML); conditions: cited from earlier work
[5] = tested on: transplanted human stem cells, transplanted AML cells; conditions: mouse model; cited from earlier work
CD4+ T lymphocytes = conditions: cited from earlier work
[6] = Escherichia coli, DH5ALPHA, 10 μl per disk, 16 hours at 37° C., read-out: diameter of zone of inhibition

Compound | Optimal Adherence Concentration (nM)*** [1] [nM] | Adherent Cells [1] | IC50 [2] [µM] | Molar Excess** [2] | other results
CC1(C)S[C@@H]2[C@H](NC(=O)[C@H](N)c3ccccc3)C(=O)N2[C@H]1C(=O)O [D-Ampicillin, Ampicillin] |  |  |  |  | activity in the Kirby-Bauer Disk Test (E. coli DH5-Alpha; 0.5 mM): exhibits activity; zone of inhibition at 500 µM (E. coli DH5-Alpha; Escherichia coli, DH5ALPHA, 0.5 mM, 10 μl per disk, 16 hours at 37° C., read-out: diameter of zone of inhibition): 15 mm; zone of inhibition at 5000 µM (E. coli DH5-Alpha; [6]): 30 mm
CC1(C)SC2C(NC(=O)C(N)c3ccccc3)C(=O)N2C1C(=O)O [L-Ampicillin, (2S,5R,6R)-6-((S)-2-amino-2 phenylacetamcido)-3,3-dimethyl-7-oxo-4-thia-1-azabicyclo[3.2.0] heptane-2-acid] |  |  |  |  | activity in the Kirby-Bauer Disk Test (E. coli DH5-Alpha; 0.5 mM): ineffective as an antibiotic; zone of inhibition at 5000 µM (E. coli DH5-Alpha; [6]): 14 mm; cell motility (morphology by confocal microscopy) (U937 Clone 10 cells): exhibited the morphology of cells undergoing cell motility; receptor polarization (U937 Clone 10 cells): induces receptor polarization; cell migration and endocytosis (SHIV) (U937 Clone 10 cells; FIGS. 3A and 3B): stimulation of cell migration and endocytosis; normalized mean % change in LDL (LDL; 5 mg/kg oral gavage 5 days per week): −41.0±20.5%; normalized mean % change in LDL (LDL; 50 mg/kg oral gavage 5 days per week): 3.7%; Mean % Change in CD3+ T cells (T lymphocytes): +16%; Mean % Change in CD4+CD8+ progenitors (T lymphocytes): +38%
CC1(C)S[C@@H]2[C@H](NC(=O)COc3ccccc3)C(=O)N2[C@H]1C(=O)O [Pen V, Penicillin V] | 10 | 30 ± 4 | 262 | 3.5 | 
MAAPVCK [methoxysuccinyl-L-Ala-L-Ala-L-Pro-L-Val-chloromethylketone] |  |  |  |  | stimulation of adherence [3]: stimulated to adhere
N-tosyl-L-phenylalanine chloromethylketone [TPCK] |  |  |  |  | stimulation of adherence [3]: stimulated to adhere
PROLASTIN-C®: human α1PI, cryoprecipitate preparation isolated from human plasma (Grifols) |  |  |  |  | specific activity (elastase): 70%
Phe-Leu-Gly-Phe-Leu (FLGFL; printed: Phe-Leu-Gly-Phe-Leu) [synthetic peptide representative of the HIV fusion domain] |  |  |  |  | stimulation of adherence [3]: stimulated to adhere
α1PI: abundant proteinase inhibitor alpha-1 proteinase inhibitor (α1PI, α1 antitrypsin) |  |  |  |  | SDF-1-induced pseudopodia formation ([4]; AML cells): prevented; SDF-1 dependent migration ([4]; pre-incubation of AML cells): significantly reduced; homing of stem cells to and egress of AML cells from bone marrow [5]: inhibited homing of transplanted human stem cells to bone marrow and egress of transplanted AML cells from bone marrow; CD4+ counts (CD4+ T lymphocytes; HIV-1-infected patients with acquired and uninfected patients with inherited α1PI deficiency): caused an increase in CD4+ counts; LDL in subjects (CD4+ T lymphocytes; α1PI treatment): produced decreased LDL

Second part, led by results:

Optimal Adherence Concentration (nM)*** [1] [nM] | Adherent Cells [1] | IC50 [2] [µM] | Molar Excess** [2] | Compound | other results
1 | 54 ± 20 |  |  | CC1(C)S[C@@H]2[C@H](NC(=O)[C@H](N)c3ccc(O)cc3)C(=O)N2[C@H]1C(=O)O [Amoxicillin] | 
1 | 33 ± 4 | 234 | 3.1 | C[C@H]1[C@H](NC(=O)/C(=N\OC(C)(C)C(=O)O)c2csc(N)n2)C(=O)N1S(=O)(=O)O [Aztreonam] | 
1 | 34 ± 8 | 167 | 2.2 | CO/N=C(\C(=O)N[C@@H]1C(=O)N2C(C(=O)O)=C(COC(N)=O)CS[C@H]12)c1ccco1 [Cefuroxine, Cefuroxime] | 
10 | 27 ± 10 |  |  | CC1=C(C(=O)O)N2C(=O)[C@@H](NC(=O)[C@H](N)c3ccccc3)[C@H]2SC1 [Cephalexin] | 
1 | 26 ± 9 | 232 | 3.1 | Cc1onc(-c2c(Cl)cccc2Cl)c1C(=O)N[C@@H]1C(=O)N2[C@@H]1SC(C)(C)[C@@H]2C(=O)O [Dicloxacillin] | 
100 | 52 ± 6 | 178 | 2.4 | C[C@@H](O)[C@H]1C(=O)N2C(C(=O)O)=C(S[C@@H]3CN[C@H](CNS(N)(=O)=O)C3)[C@H](C)[C@H]12 [Doripenem] | 
100 | 40 ± 3 | 277 | 3.7 | O=C1[C@H](CC[C@H](O)c2ccc(F)cc2)[C@@H](c2ccc(O)cc2)N1c1ccc(F)cc1 [Ezetimibe] | normalized mean % change in LDL (LDL; 10 mg/kg oral gavage 5 days per week): −43.8±29.6%
10 | 23 ± 4 | 203 | 2.7 | C[C@@H](O)[C@H]1C(=O)N2C(C(=O)O)=C([C@H]3CCCO3)S[C@H]12 [Faropenem] | 
